# Data from patent US12133486B2, “Methods of propagation of arbuscular mycorrhizal fungi (AMF) and uses thereof” (Terra Microbes, LLC, priority 2021, dated 2024).
# Columns and labels:
# [1] = test system: AM fungi; test: Field plot study: AMF spore counts in soil around western wheatgrass roots; type: in vivo; details: field plots
# Text: (§1) Twelve plots of size 50 cm by 50 cm were established on a homogenous site 2.54 meters (running northeast and southwest) by 4.06 meters (running southeast and northwest). Plant distribution was mostly homogeneous across the entire site, with western wheatgrass dominant. The plots were in four rows with three plots in each row. Within a row plots were 25 cm apart. Rows were 50 cm apart. An experimental unit was one plot. Treatments were replicated three times. Treatments included: controls (no treatment), potassium chloride treatment, potassium phosphate treatment, and potassium phosphite treatment. (See, FIG. 2).
# In this study phosphorus, either as phosphate or phosphite, was added at a rate of 120 kg of P per hectare (ha). Scaled down this equates to 3 grams of phosphorous per plot. One ha is 10,000 m^2. Each plot is 50 cm by 50 cm, or 0.25 m^2. The subsequent calculation then is 120 Kg/10,000 m^2=X/0.25 m^2; X=3.00 grams of P per plot. (See Table 2).
# (§2) Treatments: All plots received the same amount of solution. The control plots were treated with distilled water only (6.375 L). The KCl plots treated with distilled water containing the same amount of K as was needed to convert the phosphorous acid (H3PO3) to dipotassium phosphite (K2HPO3). The phosphate plots were treated with sufficient dipotassium phosphate (K2HPO4) to deliver 3 g of P per plot dissolved in the same amount of distilled water as the control plots received and the KCl plots received. The phosphite plots were treated with sufficient dipotassium phosphite (K2HPO3) to deliver 3 g of P per plot dissolved in the same amount of distilled water as the control plots received, the KCl plots received and the phosphate plots received.
# The field experiment reported in this example was conducted during June through October. Plots were established during early June and treated on the 15th and 16th day (as in Example 3 above). The first soil and root sampling was performed 14 days later (t=14). The second set of samples were taken 47 days later (t=61), and the third set 60 days later (t=121 days). Sample size and depth was as detailed above in Example 3.
# AMF spores were evaluated in soil samples from which plant roots including plant roots of western wheatgrass had existed and had been removed. Evaluations were performed on the T=0 and the T=47 samples. These evaluations generally entailed mixing the sample with water, centrifugation, and decanting water. This step was performed to remove light organic matter and other light materials, e.g., leaf fragments. This was followed by mixing the soil with a solution of sodium hexametaphosphate (2%) in 2 M sucrose. Centrifugation results in the spores floating on the sucrose solution or suspended in it. The sucrose solution plus spores is decanted into a separatory funnel. The suspension was allowed to exit the funnel one drop at a time. The spores adhere to the inside of the funnel and once all liquid has exited the funnel the spores are washed into a petri-dish and counted under a dissecting microscope.
# The specific protocol for spore extraction was as follows: • A) Weigh 5 g of air dried soil into a 20 ml centrifuge tube. For a complete sample this is replicated four times. • B) Fill each tube with water to ˜1.5 cm of the top. Stir to suspend organic matter and other light debris. Let all tubes stand for 10 minutes. • C) Centrifuge at 2000 rpm (475.2×g) for 10 minutes. Be sure tubes are placed across from each other in the centrifuge and are within 0.1 g of the same weight. • D) Pour off and discard supernatant while stirring surface and rotating tube. • E) If much organic matter and other light material remains, repeat steps B through D. • F) Add sucrose/sodium hexametaphosphate solution (2 molar sucrose containing 2% hexametaphosphate: 684.6 g of sucrose (store grade is adequate) and 20 g of sodium hexametaphosphate in one liter of solution using distilled water) to centrifuge tubes to ˜1.5 cm of top. […]
# [2] = test system: AMF infections of western wheatgrass (Pascopyron smithii) roots; test: Field plot study: AM fungal infection of western wheatgrass roots; type: in vivo; details: field plots
# Text: as §1, §2
# The field experiment reported in this example was conducted during June through October. Plots were established during early June and treated on the 15th and 16th day (as in Example 3 above). […] Sample size and depth was as detailed above in Example 3.
# Analyses of infections were performed by examining roots of wheatgrass (Pascopyron smithii). This plant was the dominant plant in all of the plots and is known to be commonly infected with AM fungi. (See, Loree M. A. J. and Williams S. E., New Phytologist, 106:735-744, 1987; and Wang B. and Qui Y.-L. 2006, Ibid.). During sampling of soils using the methodology outlined in Example 3, above, root of target plants were removed and separated by plant species, each sample being labeled and preserved in FAA solution until being further processed.
# Staining of the roots was achieved according to published procedures (see, Phillips J. M. and Hayman D. S., Trans. Brit. Mycological Soc., 55:158-160, 1970) except that cotton blue lactophenol was substituted with lactic acid glycerol with trypan blue since lactophenol is toxic. The procedure used for staining was as follows: • A) Remove roots from FAA Solutions. Cut into 1 cm lengths. Place in test tube, push roots to the bottom of the test tube. • B) Cover roots with 10% KOH (10 grams of reagent grade KOH in enough distilled water to 100 ml). Let stand overnight, about 10 hours. • C) Simmer at 90° C. for one hour in a water bath (container with water and test tubes with roots over a heat source). • D) Rinse in tap water. • E) Rinse five minutes in 0.1 N HCl (3.65 […] of HCl in 1000 ml total volume with distilled water). • F) Rinse in tap water. • G) Simmer at 90° C. one hour (in water bath) in Trypan blue Lactic Acid Glycerol (distilled water, 100 ml; lactic acid (reagent grade 85 to 88%) 100 ml; glycerin (reagent grade 85% also listed as glycerol), 200 ml; trypan blue, 0.1 grams (60% dye content). • H) Rinse in tap water. • I) Place in clear lactic acid glycerol (same formulation as above except without the Trypan blue) if destaining is necessary. Samples can be simmered at 90° C. (one hour in water bath) or left at room temperature for at least 72 hours or longer. • J) Mount on standard glass slide (2.5 cm by 7.6 cm) in lactic acid glycerol. Cover slip (2.3 cm by 4.8 cm) used.
# An estimate of the degree of infection of western wheatgrass was made by making microscopic scans of each slide such that 40 root segments were evaluated. The evaluation was performed using the 20× objective, e.g., 200× total magnification—eyepieces were 10× multiplied by the objective magnification. […]
smiles,measurement,setting,value
"[Cl-].[K+] [KCl, potassium chloride, reference compound]",Total Spores t = 47 days,"[1]; mean n = 3, P added at 120 kg/ha (KCl: same K), second sampling",14806Ab Per 100 g soil
same,Total Spores t = 0 days,"[1]; mean n = 3, P added at 120 kg/ha (KCl: same K), t = 0 = first sampling, 14 days after treatment",6398Aa Per 100 g soil
same,spore numbers compared with the control,"[1]; second sampling, t = 47",significant increase in spore numbers from the control
same,infection level compared to the control and phosphorus treated plants,"[2]; third sampling, t = 97 days",small depression in infection levels
same,AM Infection t = 0 days,"[2]; western wheatgrass roots, mean n = 3, first sampling",31Aa Per forty 1.1 mm root segments
same,AM Infection t = 47 days,"[2]; western wheatgrass roots, mean n = 3, second sampling",34Aab Per forty 1.1 mm root segments
same,AM Infection t = 97 days,"[2]; western wheatgrass roots, mean n = 3, third sampling",36BCabc Per forty 1.1 mm root segments
